21 molecules from patent publication US9296704B2, “Substituted pyrimidines as protein kinase inhibitors” (CELGENE AVILOMICS RESEARCH, INC., priority 2007, dated 2016) can be followed below.

The structures appear in SMILES notation.

What all share (type): biochemical
The target in one assay is BTK (Homo sapiens, UniProt Q06187). Description: Omnia assay for potency against BTK. Conditions: read-out: BTK Inhibition. The text has this: (§1) The protocol below describes continuous-read kinase assays to measure inherent potency of compounds against active forms of EGFR (WT) and EGFR (T790M/L858R) enzymes. The mechanics of the assay platform are best described by the vendor (Invitrogen, Carlsbad, Calif.) on their website at the following URL: http://www.invitrogen.com/content.cfm?pageid=11338 or http://www.invitrogen.com/site/us/en/home/Products-and-Services/Applications/Drug-Discovery/Target-and-Lead-Identification-and-Validation/KinaseBiology/KB-Misc/Biochemical-Assays/Omnia-Kinase-Assays.html.
(§2) Briefly, 10× stocks of EGFR-WT (PV3872) from Invitrogen and EGFR-T790M/L858R (40350) from BPS Bioscience, San Diego, Calif., 1.13×ATP (AS001A) and appropriate Tyr-Sox conjugated peptide substrates (KCZI001) were prepared in 1× kinase reaction buffer consisting of 20 mM Tris, pH 7.5, 5 mM MgCl2, 1 mM EGTA, 5 mM β-glycerophosphate, 5% glycerol (10× stock, KB002A) and 0.2 mM DTT (DS001A). 5 μL of each enzyme were pre-incubated in a Corning (#3574) 384-well, white, non-binding surface microtiter plate (Corning, NY) for 30 min. at 27° C. with a 0.5 μL volume of 50% DMSO and serially diluted compounds prepared in 50% DMSO. Kinase reactions were started with the addition of 45 μL of the ATP/Tyr-Sox peptide substrate mix and monitored every 30-90 seconds for 60 minutes at λex360/λem485 in a Synergy^4 plate reader from BioTek (Winooski, Vt.). At the conclusion of each assay, progress curves from each well were examined for linear reaction kinetics and fit statistics (R^2, 95% confidence interval, absolute sum of squares). Initial velocity (0 minutes to ˜30 minutes) from each reaction was determined from the slope of a plot of relative fluorescence units vs time (minutes) and then plotted against inhibitor concentration to estimate IC50 from log [Inhibitor] vs Response, Variable Slope model in GraphPad Prism from GraphPad Software (San Diego, Calif.).
The Omnia Assay Protocol for potency assessment against BTK is performed in a substantially similar manner as that described in Example 25 above except that the modified BTK-optimized reagent conditions are: • [BTK]=5 nM, [ATP]=[…], [Y5-Sox]=[…] (ATP KMapp ˜[…]).

Another assay has as its target T1, JAK3 (Homo sapiens, UniProt P52333).
T1 sequence (P52333 1-1124): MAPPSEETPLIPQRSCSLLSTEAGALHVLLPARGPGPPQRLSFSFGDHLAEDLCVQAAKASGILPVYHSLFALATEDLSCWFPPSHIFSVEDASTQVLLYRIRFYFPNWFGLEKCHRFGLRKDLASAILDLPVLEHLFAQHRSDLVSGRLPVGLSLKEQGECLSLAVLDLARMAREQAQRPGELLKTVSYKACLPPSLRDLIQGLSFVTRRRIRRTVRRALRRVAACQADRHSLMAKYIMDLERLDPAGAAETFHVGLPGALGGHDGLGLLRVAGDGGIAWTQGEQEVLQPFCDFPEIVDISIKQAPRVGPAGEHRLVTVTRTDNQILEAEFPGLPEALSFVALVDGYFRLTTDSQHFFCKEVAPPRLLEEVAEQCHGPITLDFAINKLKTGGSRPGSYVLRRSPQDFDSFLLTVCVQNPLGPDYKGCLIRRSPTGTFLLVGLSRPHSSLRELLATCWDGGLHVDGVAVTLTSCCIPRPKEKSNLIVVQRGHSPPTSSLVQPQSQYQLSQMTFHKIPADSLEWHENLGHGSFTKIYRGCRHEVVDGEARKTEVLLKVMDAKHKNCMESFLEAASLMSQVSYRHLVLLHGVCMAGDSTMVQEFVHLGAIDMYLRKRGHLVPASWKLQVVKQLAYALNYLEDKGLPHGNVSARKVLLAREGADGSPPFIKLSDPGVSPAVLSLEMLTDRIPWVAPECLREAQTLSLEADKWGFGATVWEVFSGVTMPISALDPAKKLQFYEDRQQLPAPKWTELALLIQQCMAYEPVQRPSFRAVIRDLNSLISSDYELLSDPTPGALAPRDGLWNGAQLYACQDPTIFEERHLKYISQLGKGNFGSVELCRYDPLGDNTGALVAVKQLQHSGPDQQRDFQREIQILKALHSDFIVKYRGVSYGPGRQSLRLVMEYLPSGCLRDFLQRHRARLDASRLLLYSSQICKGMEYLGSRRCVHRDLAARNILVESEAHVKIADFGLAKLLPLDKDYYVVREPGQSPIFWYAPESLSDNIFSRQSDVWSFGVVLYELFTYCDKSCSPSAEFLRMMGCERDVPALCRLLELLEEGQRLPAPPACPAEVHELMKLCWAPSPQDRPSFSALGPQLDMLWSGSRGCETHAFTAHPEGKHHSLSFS
The experiment in a line: Omnia assay for potency against JAK3. Conditions: read-out: JAK3 Inhibition.
Text: as §1, §2
The Omnia Assay Protocol for potency assessment against JAK3 is performed in a substantially similar manner as that described in Example 25 above except that the modified JAK3-optimized reagent conditions are: • [JAK3]=5 nM, [ATP]=5 μM, [Y12-Sox]=5 μM (ATP KMapp ˜[…]).

The target of the next assay is T2, EGFR (WT) (Homo sapiens, UniProt P00533).
T2 construct: purchased Invitrogen PV3872
The experiment in a line: Omnia continuous-read kinase assay, EGFR (WT). The note with it: read-out: EGFR inhibtion.
Text: as §1, §2
The EGFR-WT- and EGFR T790M/L858R-modified optimized reagent conditions are: • [EGFR-WT]=5 nM, [ATP]=[…], [Y12-Sox]=[…]; and [EGFR-T790M/L858R]=3 nM, [ATP]=[…], [Y12-Sox]=[…].

BTK, sequence (Q06187 whole entry): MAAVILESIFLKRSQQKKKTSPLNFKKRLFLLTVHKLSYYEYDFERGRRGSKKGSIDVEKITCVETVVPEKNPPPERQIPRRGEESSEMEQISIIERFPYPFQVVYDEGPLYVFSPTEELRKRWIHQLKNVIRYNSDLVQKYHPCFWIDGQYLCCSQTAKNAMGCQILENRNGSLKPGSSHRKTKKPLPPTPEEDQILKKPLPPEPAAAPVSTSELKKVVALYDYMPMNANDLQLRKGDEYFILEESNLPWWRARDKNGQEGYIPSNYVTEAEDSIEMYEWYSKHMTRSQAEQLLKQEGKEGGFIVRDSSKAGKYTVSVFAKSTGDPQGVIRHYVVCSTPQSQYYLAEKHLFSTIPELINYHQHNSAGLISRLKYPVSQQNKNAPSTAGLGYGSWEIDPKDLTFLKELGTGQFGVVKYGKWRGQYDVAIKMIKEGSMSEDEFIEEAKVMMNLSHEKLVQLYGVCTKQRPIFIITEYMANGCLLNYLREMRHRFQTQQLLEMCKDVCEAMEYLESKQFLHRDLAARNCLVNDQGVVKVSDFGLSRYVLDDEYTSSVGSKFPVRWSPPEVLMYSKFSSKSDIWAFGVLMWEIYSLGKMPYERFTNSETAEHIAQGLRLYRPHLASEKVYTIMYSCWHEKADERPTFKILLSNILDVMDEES
T2 sequence (P00533 25-1210): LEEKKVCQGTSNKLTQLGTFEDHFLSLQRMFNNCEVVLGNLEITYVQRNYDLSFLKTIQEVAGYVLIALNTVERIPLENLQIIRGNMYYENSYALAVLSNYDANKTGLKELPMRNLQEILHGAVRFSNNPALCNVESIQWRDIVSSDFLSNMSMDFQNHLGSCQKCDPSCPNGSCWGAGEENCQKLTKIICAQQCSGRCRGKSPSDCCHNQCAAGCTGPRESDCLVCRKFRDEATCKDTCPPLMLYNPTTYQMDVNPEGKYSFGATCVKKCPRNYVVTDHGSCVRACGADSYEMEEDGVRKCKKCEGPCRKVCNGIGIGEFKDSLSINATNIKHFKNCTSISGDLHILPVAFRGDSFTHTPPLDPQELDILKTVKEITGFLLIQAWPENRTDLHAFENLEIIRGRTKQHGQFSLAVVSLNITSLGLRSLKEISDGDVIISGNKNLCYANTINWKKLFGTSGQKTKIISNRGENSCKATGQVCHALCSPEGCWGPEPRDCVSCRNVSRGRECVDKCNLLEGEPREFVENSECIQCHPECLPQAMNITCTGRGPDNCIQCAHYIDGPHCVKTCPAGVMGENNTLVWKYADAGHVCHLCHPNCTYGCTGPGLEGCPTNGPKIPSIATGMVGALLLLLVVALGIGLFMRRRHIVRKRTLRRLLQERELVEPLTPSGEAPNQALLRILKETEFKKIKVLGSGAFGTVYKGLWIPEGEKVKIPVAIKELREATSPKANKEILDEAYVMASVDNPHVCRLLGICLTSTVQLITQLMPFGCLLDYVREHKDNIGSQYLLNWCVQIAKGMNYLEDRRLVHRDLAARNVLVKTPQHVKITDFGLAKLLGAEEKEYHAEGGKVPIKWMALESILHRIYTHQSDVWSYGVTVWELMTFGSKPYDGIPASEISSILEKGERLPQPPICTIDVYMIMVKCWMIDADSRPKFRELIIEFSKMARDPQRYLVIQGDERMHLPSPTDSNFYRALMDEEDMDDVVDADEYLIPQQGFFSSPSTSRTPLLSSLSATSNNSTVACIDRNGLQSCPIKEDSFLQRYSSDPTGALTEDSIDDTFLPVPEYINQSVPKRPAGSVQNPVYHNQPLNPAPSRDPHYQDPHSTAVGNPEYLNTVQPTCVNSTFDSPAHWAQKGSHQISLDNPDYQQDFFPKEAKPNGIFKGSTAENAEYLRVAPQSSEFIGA

In the case of `CC(Cl)C(=O)Nc1cccc(Nc2cc(Nc3ccc(F)c(Cl)c3)ncn2)c1` (centres unmarked) [I-50, 2-chloro-N-[3-(6-{3-chloro-4-fluorophenyl}aminopyrimidin-4-yl)aminophenyl]propionamide], the IC50 fell in the range of 1000 to 10000 nM on BTK and 100 to 1000 nM at JAK3.
For `CN(C)C/C=C/C(=O)Nc1cccc(Nc2cc(Nc3ccc(Oc4ccccc4)cc3)ncn2)c1` [I-62, (E)-N-3-[6-(4-phenoxyphenyl)amino-pyrimidin-4-yl]aminophenyl-4-(dimethylamino)but-2-enamide] the same measures were no more than 10 nM and 100 to 1000 nM.
`C#Cc1cccc(Nc2cc(Nc3cccc(NC(=O)C=C)c3)ncn2)c1` [I-68, N-3-[6-(3-ethynylphenylamino)-pyrimidin-4-yl]aminophenyl-2-propenamide]: the IC50 on EGFR (WT) was no more than 10 nM; on BTK, 10 to 100 nM; on JAK3 it was no more than 10 nM.
For the molecule `O=C(CCl)Nc1cccc(Nc2cc(Oc3ccc(NC(=O)Nc4ccc(Cl)c(C(F)(F)F)c4)cc3)ncn2)c1` [I-69, N-3-[6-(4-[4-[[4-chloro-3-(trifluoromethyl)phenyl]amino]-carbonyl]amino)phenoxypyrimidin-4-yl]aminophenylchloroacetamide], the IC50 on EGFR (WT) is 10 to 100 nM; at BTK, 100 to 1000 nM; on JAK3 it was 100 to 1000 nM.
Take `C=CC(=O)N1CCC(Nc2cc(Nc3ccc(F)c(Cl)c3)ncn2)C1` (centres unmarked) [I-70, 1-(3-(6-(3-chloro-4-fluorophenyamino)pyrimidin-4-ylamino)pyrrolidin-1-yl)prop-2-en-1-one]: the figures for the IC50 on EGFR (WT), at BTK and on JAK3 were no more than 10 nM, 100 to 1000 nM and 100 to 1000 nM, respectively.
In the case of `C=CC(=O)N1CCCC(Nc2cc(Nc3ccc(F)c(Cl)c3)ncn2)C1` (centres unmarked) [I-71, 1-(3-(6-(3-chloro-4-fluorophenyamino)pyrimidin-4-ylamino)piperidin-1-yl)prop-2-en-1-one], the IC50 on EGFR (WT) is no more than 10 nM; on BTK, 1000 to 10000 nM; on JAK3, 1000 to 10000 nM.
On to `CN(C)C/C=C/C(=O)Nc1cccc(Nc2cc(Nc3ccccc3)ncn2)n1` [I-73, (E)-4-(dimethylamino)-N-(6-(6-(phenylamino)pyrimidin-4-ylamino)pyridine-2-yl)but-2-enamide], for which the IC50 on EGFR (WT), at BTK and at JAK3 was no more than 10 nM throughout.
As for `C=CC(=O)Nc1cccc(Nc2cc(Nc3cccc(Oc4ccccc4)c3)ncn2)c1` [I-75, N-(3-(6-(3-phenoxyphenylamino)pyrimidin-4-ylamino)phenyl)acrylamide], the IC50 at EGFR (WT) was no more than 10 nM; on BTK it was no more than 10 nM; on JAK3, 100 to 1000 nM.
Regarding `C=CC(=O)Nc1ccc(Nc2cc(Nc3ccc(Oc4ccccc4)cc3)ncn2)cc1` [I-80, N-4-[6-(4-phenoxyphenyl)amino-pyrimidin-4-yl]aminophenylpropenamide], the IC50 on EGFR (WT) was 100 to 1000 nM; at BTK, 1000 to 10000 nM; on JAK3, no less than 10000 nM.
As to `C=C(C)C(=O)c1cccc(Nc2cc(Nc3ccc(Oc4ccccc4)cc3)ncn2)c1` [I-83, 2-methyl-1-(3-(6-(4-phenoxyphenylamino)pyrimidin-4-ylamino)phenyl)prop-2-en-1-one], the IC50 on EGFR (WT) and on BTK was no more than 10 nM throughout.
Take `C=C(C#N)C(O)c1cccc(Nc2cc(Nc3ccc(Oc4ccccc4)cc3)ncn2)c1` (centres unmarked) [I-84]: the IC50 on EGFR (WT) was 10 to 100 nM; on BTK, 1000 to 10000 nM; on JAK3 it was no less than 10000 nM.
`C=CC(=O)N1CCC(Nc2cc(Nc3ccc(Oc4ccccc4)cc3)ncn2)C1` (centres unmarked) [I-85, 1-(3-(6-(4-phenoxyphenylamino)pyrimidin-4-ylamino)pyrrolidin-1-yl)prop-2-en-1-one]: the IC50 was 10 to 100 nM at EGFR (WT), 10 to 100 nM on BTK and 1000 to 10000 nM at JAK3.
`CC(C)=CC(=O)c1cccc(Nc2cc(Nc3ccc(Oc4ccccc4)cc3)ncn2)c1` [I-87, 3-methyl-1-(3-(6-(4-phenoxyphenylamino)pyrimidin-4-ylamino)phenyl)but-2-en-1-one]: the IC50 is 10 to 100 nM at EGFR (WT) and no less than 10000 nM at BTK.
For `C=CC(=O)Nc1cccc(Nc2cc(Oc3ccc(OC)cc3)ncn2)n1` [I-91, N-(6-(6-(4-methoxyphenoxy)pyrimidin-4-ylamino)pyridine-2-yl)acrylamide] the same measures were no more than 10 nM and no more than 10 nM.
For `CN(C)C/C=C/C(=O)Nc1cccc(Nc2cc(Oc3ccc(F)c(Cl)c3)ncn2)c1` [I-92)], at EGFR (WT), the IC50 was no more than 10 nM.
As for `CN(C)C/C=C/C(=O)Nc1cccc(Nc2cc(Oc3ccc(F)c(Cl)c3)ncn2)c1` [I-92, (E)-N-(3-(6-(3-chloro-4-fluorophenoxy)pyrimidin-4-ylamino)phenyl)-4-(dimethylamino)but-2-enamide], the IC50 at BTK and at JAK3 was 10 to 100 nM in each case.
As to `C=CC(=O)Nc1cccc(Nc2cc(Oc3ccc(Oc4ccccc4)cc3)ncn2)c1` [I-97, N-(3-(6-(4-phenoxyphenoxy)pyrimidin-4-ylamino)phenyl)acrylamide], the IC50 at EGFR (WT) is no more than 10 nM; on BTK, 100 to 1000 nM.
For `C=CC(=O)Nc1cc(Nc2cc(Oc3ccc(Oc4ccccc4)cc3)ncn2)cc(C(=O)NCCOC)c1` [I-102, 3-acrylamido-N-(2-methoxyethyl)-5-(6-(4-phenoxyphenoxy)pyrimidin-4-ylamino)benzamide], in that order: no more than 10 nM and 10 to 100 nM.
For `C=CC(=O)Nc1cccc(Nc2cc(Sc3ccc(Oc4ccccc4)cc3)ncn2)c1` [I-103, N-(3-(6-(4-phenoxyphenylthio)pyrimidin-4-ylamino)phenyl)acrylamide] the same measures were no more than 10 nM and 100 to 1000 nM.
As to `C=CC(=O)N1CC(C)(C)Oc2ccc(Nc3cc(Oc4cccc(Cl)c4)ncn3)cc21` [I-104, 1-(6-(6-(3-chlorophenoxy)pyrimidin-4-ylamino)-2,2-dimethyl-2H-benzo[b][1,4]oxazin-4(3H)-yl)prop-2-en-1-one], the IC50 at EGFR (WT) and on BTK was no more than 10 nM in each case.
Consider `C=CC(=O)Nc1cc(Nc2cc(Oc3cccc(Cl)c3)ncn2)ccc1N1CCOCC1` [I-105, N-(2-morpholino-5-(6-(3-chlorophenoxy)pyrimidin-4-ylamino)phenyl)acrylamide], for which the IC50 on EGFR (WT) was no more than 10 nM; on BTK, 10 to 100 nM.
